Results taken from ChEMBL document CHEMBL1201862, “PubChem BioAssay data set” (2004).
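Where inhibition never reached the appropriate level, the endpoint shown equals the highest concentration tested. Otherwise, values were interpolated linearly from a five-concentration, 48-hour dose response in 96-well plates. GI50 = concentration required for 50% inhibition of growth.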 Active and inactive are the calls of the source. Rule as the data show it: active = GI50 up to about 1.1 µM and inactive = higher.

What was measured:
Test in all cases: NCI anticancer screen, dose series, 48 h
HOP-92 = test system: HOP-92
ACHN = test system: ACHN
HT-29 = test system: HT-29
IGROV-1 = test system: IGROV-1
OVCAR-5 = test system: OVCAR-5
SK-MEL-2 = test system: SK-MEL-2
M14 = test system: M14
UACC-257 = test system: UACC-257
SR = test system: SR
NCI/ADR-RES = test system: NCI/ADR-RES
PC-3 = test system: PC-3
SN12C = test system: SN12C
UO-31 = test system: UO-31
SK-OV-3 = test system: SK-OV-3
OVCAR-3 = test system: OVCAR-3
EKVX = test system: EKVX
UACC-62 = test system: UACC-62
MDA-MB-435 = test system: MDA-MB-435
RPMI-8226 = test system: RPMI-8226
SF-268 = test system: SF-268

## COc1ccc(CCN2C(=O)C=CC2=O)cc1OC
HOP-92
  GI50: 15.4 µM (inactive)
ACHN
  GI50: 1.77 µM (inactive)
HT-29
  GI50: 6.31 µM (inactive)
IGROV-1
  GI50: 18 µM (inactive)
OVCAR-5
  GI50: 18.4 µM (inactive)
SK-MEL-2
  GI50: 5.2 µM (inactive)
M14
  GI50: 9.84 µM (inactive)
UACC-257
  GI50: 16.8 µM (inactive)
SR
  GI50: 2.25 µM (inactive)
NCI/ADR-RES
  GI50: 25.4 µM (inactive)
PC-3
  GI50: 18.7 µM (inactive)
SN12C
  GI50: 17.5 µM (inactive)
UO-31
  GI50: 1.63 µM (inactive)
SK-OV-3
  GI50: 18.8 µM (inactive)
OVCAR-3
  GI50: 18 µM (inactive)
EKVX
  GI50: 19.2 µM (inactive)
UACC-62
  GI50: 17.3 µM (inactive)
MDA-MB-435
  GI50: 17.5 µM (inactive)
RPMI-8226
  GI50: 1.77 µM (inactive)
SF-268
  GI50: 22.1 µM (inactive)

## CC1=CC(=O)c2cccc(NC3=NCCO3)c21
HOP-92
  GI50: 36.1 µM (inactive)
ACHN
  GI50: 86.7 µM (inactive)
HT-29
  GI50: 34 µM (inactive)
IGROV-1
  GI50: 36.1 µM (inactive)
OVCAR-5
  GI50: > 100 µM (inactive)
SK-MEL-2
  GI50: 97.1 µM (inactive)
M14
  GI50: 47.3 µM (inactive)
SR
  GI50: 38.2 µM (inactive)
NCI/ADR-RES
  GI50: 29.5 µM (inactive)
PC-3
  GI50: 46.6 µM (inactive)
SN12C
  GI50: 52.7 µM (inactive)
UO-31
  GI50: 76.6 µM (inactive)
SK-OV-3
  GI50: > 100 µM (inactive)
OVCAR-3
  GI50: 25.4 µM (inactive)
EKVX
  GI50: > 100 µM (inactive)
UACC-62
  GI50: > 100 µM (inactive)
MDA-MB-435
  GI50: 31.6 µM (inactive)
RPMI-8226
  GI50: 45.1 µM (inactive)
SF-268
  GI50: > 100 µM (inactive)

## CC[C@@]1(O)CC(OC2CC(N3CCOCC3)C(O)C(C)O2)c2c(O)c3c(c(O)c2[C@H]1O)C(=O)c1cccc(O)c1C3=O (some centres not stated)
HOP-92
  GI50: 0.0429 µM (active)
ACHN
  GI50: 0.0359 µM (active)
HT-29
  GI50: 0.0902 µM (active)
IGROV-1
  GI50: 0.0959 µM (active)
OVCAR-5
  GI50: 0.371 µM (active)
SK-MEL-2
  GI50: 0.312 µM (active)
M14
  GI50: 0.356 µM (active)
UACC-257
  GI50: 0.214 µM (active)
SR
  GI50: 0.0193 µM (active)
NCI/ADR-RES
  GI50: 0.145 µM (active)
PC-3
  GI50: 0.0957 µM (active)
SN12C
  GI50: 0.0667 µM (active)
SK-OV-3
  GI50: 0.126 µM (active)
OVCAR-3
  GI50: 0.355 µM (active)
EKVX
  GI50: 0.318 µM (active)
UACC-62
  GI50: 0.0667 µM (active)
MDA-MB-435
  GI50: 0.304 µM (active)
RPMI-8226
  GI50: 0.0897 µM (active)
SF-268
  GI50: 0.122 µM (active)

## CCC[C@H](O)[C@@H](CNc1cc(NC(C)=O)nc(NC(C)=O)n1)N(Cc1ccccc1)Cc1ccccc1
HOP-92
  GI50: 34.4 µM (inactive)
ACHN
  GI50: 19.8 µM (inactive)
IGROV-1
  GI50: 12.8 µM (inactive)
OVCAR-5
  GI50: 27.9 µM (inactive)
SK-MEL-2
  GI50: 27.4 µM (inactive)
M14
  GI50: 26.5 µM (inactive)
UACC-257
  GI50: 29.2 µM (inactive)
SR
  GI50: 49.5 µM (inactive)
NCI/ADR-RES
  GI50: 19.3 µM (inactive)
PC-3
  GI50: 13.5 µM (inactive)
SN12C
  GI50: 41.3 µM (inactive)
UO-31
  GI50: 18.1 µM (inactive)
SK-OV-3
  GI50: 19.8 µM (inactive)
OVCAR-3
  GI50: 18.9 µM (inactive)
EKVX
  GI50: 12.1 µM (inactive)
UACC-62
  GI50: 18.3 µM (inactive)
MDA-MB-435
  GI50: 54 µM (inactive)
RPMI-8226
  GI50: 46.2 µM (inactive)

## O=C(NN=C1NCCCCN1)Nc1ccc(Cl)cc1
HOP-92
  GI50: > 100 µM (inactive)
ACHN
  GI50: > 100 µM (inactive)
HT-29
  GI50: > 100 µM (inactive)
IGROV-1
  GI50: > 100 µM (inactive)
OVCAR-5
  GI50: > 100 µM (inactive)
SK-MEL-2
  GI50: > 100 µM (inactive)
UACC-257
  GI50: > 100 µM (inactive)
SR
  GI50: 22.8 µM (inactive)
NCI/ADR-RES
  GI50: > 100 µM (inactive)
PC-3
  GI50: 73.5 µM (inactive)
UO-31
  GI50: > 100 µM (inactive)
SK-OV-3
  GI50: > 100 µM (inactive)
OVCAR-3
  GI50: > 100 µM (inactive)
EKVX
  GI50: > 100 µM (inactive)
UACC-62
  GI50: > 100 µM (inactive)
MDA-MB-435
  GI50: > 100 µM (inactive)
RPMI-8226
  GI50: 45.1 µM (inactive)
SF-268
  GI50: 93.1 µM (inactive)

## Cc1cc(C)c(C(=O)c2nnc3ccccc3c2N)c(C)c1
HOP-92
  GI50: 3.65 µM (inactive)
ACHN
  GI50: 23.1 µM (inactive)
HT-29
  GI50: 25.5 µM (inactive)
IGROV-1
  GI50: 15.3 µM (inactive)
OVCAR-5
  GI50: 15.8 µM (inactive)
SK-MEL-2
  GI50: 14.9 µM (inactive)
M14
  GI50: 13.9 µM (inactive)
UACC-257
  GI50: 37.9 µM (inactive)
SR
  GI50: 24 µM (inactive)
NCI/ADR-RES
  GI50: 24.3 µM (inactive)
PC-3
  GI50: 17.4 µM (inactive)
SN12C
  GI50: 15.3 µM (inactive)
SK-OV-3
  GI50: 32.4 µM (inactive)
OVCAR-3
  GI50: 16.3 µM (inactive)
UACC-62
  GI50: 16.4 µM (inactive)
MDA-MB-435
  GI50: 15.8 µM (inactive)
RPMI-8226
  GI50: 24.9 µM (inactive)
SF-268
  GI50: 48.3 µM (inactive)
